The record followed here is patent US20220288075A1, “METHOD AND COMPOSITION FOR TREATING PAIN” (ACADEMIA SINICA, priority 2019, published 2022).

One assay has as its system WT mice. The assay is described as follows: LPC16:0 / lipid injection in wild-type mice, mechanical hypersensitivity by von Frey test. The note with it: for long-lasting hyperalgesia / priming-like effect after repeated intramuscular injection: two i.m. injections, 4.8 nmol, 10C. The assay is classed as in vivo.
A further assay deals with pERK. The experiment in a line: pERK expression of L4 DRG neurons after intramuscular LPC16:0 injection. The assay is classed as in vivo, mice. The protocol: (§1) The chronic pain model was based on the repeated acid injection model protocol by Sluka et al.^44, and LPC16:0 was used for pain induction to replace acidic saline injection. Mice received in the left gastrocnemius muscle two intramuscular injections (1 day apart) of 10 μL neutral saline solution (pH 7.4; buffered with HEPES) containing vehicle (0.96% ethanol) or LPC16:0 (4.8 nmol; Avanti Polar Lipids Inc)^30. In the experiment of pharmacological inhibition of ASIC3, APETx2 (50 pmole; Alomone, Israel), a selective ASIC3 antagonist, was co-injected with LPC16:0.
Immunofluorescence staining. Animals were euthanized with urethane ([…], i.p.) and perfused with 4% paraformaldehyde (PFA) at P0. L4 dorsal root ganglia (DRG) were extracted and immediately post-fixed in 4% PFA for 60 min, and then replaced with 30% sucrose overnight. DRG were embedded in OCT compound and sectioned (12 μm) with a Leica cryostat. […] Images were acquired and quantified under a Carl Zeiss fluorescence microscope with a 10× objective lens. All images from the same experiment were acquired with the same settings, including fluorescence intensity, acquisition time, and image resolution. The immunoreactivity of pERK and the overlap between pERK and neuron markers (SP, CGRP, IB4 or N52) were assessed using Fiji (ImageJ, NIH) software, with the experimenter blinded to treatment and/or genotype. […]

The subject of assay [1] is mice with repeated LPC16:0 injection. The assay is described as follows: Repeated LPC16:0 injection model, drug effects by von Frey test. The assay is classed as in vivo. The note with it: for analgesic effect in repeated LPC16:0 injection model (von Frey): intraperitoneal administration, FIG. 10E. The protocol: as §1
(§2) Animals were placed on an elevated mesh platform, and a 0.2-mN von Frey filament was applied to the plantar surface of both hind paws. A positive response was defined as lifting, shaking, guarding, or licking paws when the stimulus was applied. For each paw, the filament was applied 5 times at 30-sec intervals.
Analgesic drugs: Pregabalin (0.3, 1, 3 or 10 mg/kg bodyweight, i.p.; Toronto Research Chemicals), morphine (0.3, 1, 3 or 10 mg/kg bodyweight, i.p.), diclofenac (1, 3 or 10 mg/kg bodyweight, i.p.; Sigma-Aldrich) or vehicle (0.9% saline) was administered, and the effect of each drug was evaluated by testing 6 mice. Sensory testing was carried out at 30 min and 1, 3 and 24 hours after injection of vehicle or drugs, with the experimenter blinded to the dose of test drugs. […] The 3Rs stand for Replace, Reduce, Refine and represent a responsible approach to animal testing. The goal is to replace animal experiments whenever possible. In addition, the aim is to keep the number of animal experiments as low as possible and to only use the necessary number of animals. Lastly, it is vital to ensure that the distress inflicted upon the animals is as low as possible. Therefore, all the pharmacological studies were conducted on post-RISS day 1 and day 4 (3 days apart, within 1 week after RISS). Mice of post-stress day 1 and day 4 were assigned randomly but equally to each tested dosage for counterbalance. During testing, the experimenter was blind to the individual treatment assignments.
Intrathecal injection was conducted through transcutaneous injection with a 30-gauge needle at the L5-6 dorsal spinal process under anesthesia of isoflurane (1.5%).

A further assay concerns RISS mice. The experiment in a line: RISS (repeated and intermittent sound stress) model, sensory testing (von Frey, muscle withdrawal threshold, Hargreaves). In kind it is in vivo. Particulars: i.p. injection, post-RISS day 1 and 4; FIG. 1G.
Description: Sound stressors were applied as described^14, 43 with modification. Mice were placed (3 per cage) in a 20×30×15 cm bedding cage, which was kept 25 cm below a speaker, inside a 40×50×35 cm sound-insulated box. A speaker emitted pure tones at 5 frequencies (5, 11, 13, 15 and 19 kHz) with random amplitudes varied over time for each frequency (0, 20, 60, 90, and 100 dB sound). Each tone stimulus lasted for 5 or 10 sec in random order, and mice were stimulated continuously without interval. The sound stressors continued for 30 min as a set. In the original SS (sound stress) protocol, a set of 30-min stimuli was given once a day on days 1, 3, and 4 (FIG. 1A)^14. The RISS model intensified the stress protocol by increasing the stimulus frequency: a set of sound stimulus was repeated every 3 hours for 6 times overnight (from 16:00 to 10:00), followed by resting silence for 6 hours (from 10:00 to 16:00). The procedure was repeated on days 1, 3, and 4 as for the SS protocol. The control groups were placed in similar chambers for 4 days without stress exposure. Both groups of mice had access to food and water freely during the stress period. After the stimulus procedure, mice were returned to their original home cages in the animal care facility. In both the SS and RISS protocols, the day after completing the stress stimuli is called P0; the post-stress day 1, P1; and so on. In the experimental design of the […] single-day stimuli of intermittent SS (SISS), the day after SISS is called P′0; the post-stress day 1, P′1; and so on.
as §2
Mice were placed individually in Acrylic cubicles mounted on a glass surface maintained at 30° C. The test was performed after acclimatization. The thermal stimulus of the radiant heat was then applied to the plantar surface of each hind paw. Each mouse was tested in three sequential trials with an interval of 2-3 min. The assay cutoff was set at 30 sec to prevent tissue damage. Paw withdrawal latencies were calculated as the mean of three measures.
Muscle withdrawal thresholds were evaluated as described^46. […]
Analgesic drugs: Pregabalin (0.3, 1, 3 or 10 mg/kg bodyweight, i.p.; Toronto Research Chemicals), morphine (0.3, 1, 3 or 10 mg/kg bodyweight, i.p.), diclofenac (1, 3 or 10 mg/kg bodyweight, i.p.; Sigma-Aldrich) or vehicle (0.9% saline) was administered, and the effect of each drug was evaluated by testing 6 mice. […]

Take `CCCCCCCCCCCCCCCC(=O)OC[C@@H](O)COP(=O)([O-])OCC[N+](C)(C)C` [LPC16:0, lysophosphatidylcholine (LPC) 16:0]: the “hyperalgesic responses after intramuscular injection, dose dependence” value in the assay on WT mice (4.8, 1.6 and 0.48 nmol i.m., FIG. 3I) is listed as “dose-dependently evoked hyperalgesic responses”. Moreover, in the assay with WT mice (single i.m. injection, FIG. 3J), the “hyperalgesia after single intramuscular injection” value is “induced transient bilateral hyperalgesia”. Also, in the assay on WT mice (FIG. 3J), the “long-lasting hyperalgesia / priming-like effect after repeated intramuscular injection” value was “induced long-lasting hyperalgesic changes”. Also, the “hyperalgesia after repeated intraplantar injection” value with WT mice (two intraplantar injections, 4.8 nmole, FIG. 3J right) is listed as “only induced transient hyperalgesia”. Moreover, the “pERK expression in L4 DRG neurons after LPC injection vs vehicle” value in the assay with pERK (i.m. injection, FIG. 10A, 10B) is “increased”.

`CCCCCCCCCCCCCCCCCC(=O)OC[C@@H](O)COP(=O)([O-])OCC[N+](C)(C)C` [LPC18:0]: the “long-lasting hyperalgesia / priming-like effect after repeated intramuscular injection” value in the assay with WT mice (FIG. 3J) is given as “not observed”.

Regarding `CCCCCCCCCCCCC/C=C/[C@@H](O)[C@H](COP(=O)([O-])OCC[N+](C)(C)C)NC(=O)CCCCCCCCCCCCCCCCC` [SM(d18:1/18:0)], the “long-lasting hyperalgesia / priming-like effect after repeated intramuscular injection” value in the assay with WT mice (FIG. 3J) was “not observed”.

In the case of `N#CC(=C(/N)Sc1ccccc1N)/C(C#N)=C(\N)Sc1ccccc1N` [U0126], in assay [1] (mouse, in vivo), the “LPC16:0-induced acute hyperalgesia” value was “prevented” and the “chronic hyperalgesia induced by the second LPC16:0 injection” value is recorded as “impeded the development of chronic hyperalgesia”.

On to `O=C(O)Cc1ccccc1Nc1c(Cl)cccc1Cl` [diclofenac], for which the “analgesic effect on RISS-induced hyperalgesia (mechanical, muscle, thermal)” value (“analgesic effect … (mechanical, muscle, thermal)” for short) in the assay with RISS mice is “no significant analgesic effects”. Besides, the “analgesic effect in repeated LPC16:0 injection model (von Frey)” value (shortened to “analgesic effect … (von Frey)”) in assay [1] is “not”.

In the case of `CN1CC[C@]23c4c5ccc(O)c4O[C@H]2[C@@H](O)C=C[C@H]3[C@H]1C5` [morphine], the “analgesic effect … (mechanical, muscle, thermal)” value with RISS mice was “no significant analgesic effects”. In assay [1], the “analgesic effect … (von Frey)” value is “not”.

On to `CC(C)C[C@H](CN)CC(=O)O` [pregabalin], for which, in the assay with RISS mice, the “analgesic effect … (mechanical, muscle, thermal)” value is given as “dose-dependently reversed hyperalgesia”. In addition, in assay [1], the “analgesic effect … (von Frey)” value was “responded”.

Consider APETx2, for which, in the assay on pERK (APETx2 co-injected with LPC16:0, FIG. 10F, 10G), the “LPC16:0 injection-induced pERK expression in DRG neurons” value was “reduced”. In addition, the “chronic hypersensitivity after repeated LPC16:0 injection” value in assay [1] (APETx2 50 pmole co-injected i.m. with LPC16:0, FIG. 3K left) is recorded as “significantly reduced”. Also, in assay [1] (APETx2 co-injected i.m. with LPC16:0, vs vehicle, FIG. 3K left), the “transient (acute) hyperalgesia after LPC16:0 injection” value is “transient hyperalgesia was observed”.
